# Assay results published in patent US5026848A, “Novel generation of heteroaryloxyalkyl heterocycles with antipicornaviruses activities” (Synphar Laboratories Incorporated, priority 1988, dated 1991).
# Where two headings read alike, the source gives them in different places.
# Tests used:
# [1] = tested on: WI38 cells; assay: Toxicity to WI38 cells (change in morphology in / growth inhibition of 25% of the cells); assay type: cell-based
# [2] = tested on: Rhinovirus 1A; assay: Anti-rhinovirus activity, cytopathic effect inhibition / neutral red dye uptake, type 1A; assay type: cell-based; conditions: Enterovirus, WI-38
# [3] = tested on: Rhinovirus 1B; assay: Anti-rhinovirus activity, cytopathic effect inhibition / neutral red dye uptake, type 1B; assay type: cell-based; conditions: Enterovirus, WI-38; Table II; one of seven commonest serotypes; read-out: MIC 50 Rhinovirus Type 1B
# [4] = tested on: Rhinovirus 2; assay: Anti-rhinovirus activity, cytopathic effect inhibition / neutral red dye uptake, type 2; assay type: cell-based; conditions: Enterovirus, WI-38; Table II; one of seven commonest serotypes; read-out: MIC 50 Rhinovirus Type 2
# [5] = tested on: Rhinovirus 4; assay: Anti-rhinovirus activity, cytopathic effect inhibition / neutral red dye uptake, type 4; assay type: cell-based; conditions: Enterovirus, WI-38; Table II; one of seven commonest serotypes; read-out: MIC 50 Rhinovirus Type 4
# [6] = tested on: Rhinovirus 15; assay: Anti-rhinovirus activity, cytopathic effect inhibition / neutral red dye uptake, type 15; assay type: cell-based; conditions: Enterovirus, WI-38; Table II; one of seven commonest serotypes; read-out: MIC 50 Rhinovirus Type 15
# [7] = tested on: Rhinovirus 17; assay: Anti-rhinovirus activity, cytopathic effect inhibition / neutral red dye uptake, type 17; assay type: cell-based; conditions: Enterovirus, WI-38; Table II; read-out: MIC 50 Rhinovirus Type 17
# [8] = tested on: Rhinovirus 23; assay: Anti-rhinovirus activity, cytopathic effect inhibition / neutral red dye uptake, type 23; assay type: cell-based; conditions: Enterovirus, WI-38; Table II; read-out: MIC 50 Rhinovirus Type 23
# [9] = tested on: Rhinovirus 29; assay: Anti-rhinovirus activity, cytopathic effect inhibition / neutral red dye uptake, type 29; assay type: cell-based; conditions: Enterovirus, WI-38; Table II; one of seven commonest serotypes; read-out: MIC 50 Rhinovirus Type 29
# [10] = tested on: Rhinovirus 30; assay: Anti-rhinovirus activity, cytopathic effect inhibition / neutral red dye uptake, type 30; assay type: cell-based; conditions: Enterovirus, WI-38; Table II; read-out: MIC 50 Rhinovirus Type 30
# [11] = tested on: Rhinovirus 31; assay: Anti-rhinovirus activity, cytopathic effect inhibition / neutral red dye uptake, type 31; assay type: cell-based; conditions: Enterovirus, WI-38; Table II; one of seven commonest serotypes; read-out: MIC 50 Rhinovirus Type 31
# [12] = tested on: Rhinovirus 32; assay: Anti-rhinovirus activity, cytopathic effect inhibition / neutral red dye uptake, type 32; assay type: cell-based; conditions: Enterovirus, WI-38; Table II; read-out: MIC 50 Rhinovirus Type 32
# [13] = tested on: Rhinovirus 36; assay: Anti-rhinovirus activity, cytopathic effect inhibition / neutral red dye uptake, type 36; assay type: cell-based; conditions: Enterovirus, WI-38; Table II; read-out: MIC 50 Rhinovirus Type 36
# [14] = tested on: Rhinovirus 39; assay: Anti-rhinovirus activity, cytopathic effect inhibition / neutral red dye uptake, type 39; assay type: cell-based; conditions: Enterovirus, WI-38; Table I; WI38 cells, 33° C., 3-4 days; read-out: MIC50 Rhinovirus 39
# [15] = tested on: Rhinovirus 44; assay: Anti-rhinovirus activity, cytopathic effect inhibition / neutral red dye uptake, type 44; assay type: cell-based; conditions: Enterovirus, WI-38; Table II; read-out: MIC 50 Rhinovirus Type 44
# [16] = tested on: Rhinovirus 49; assay: Anti-rhinovirus activity, cytopathic effect inhibition / neutral red dye uptake, type 49; assay type: cell-based; conditions: Enterovirus, WI-38; Table II; read-out: MIC 50 Rhinovirus Type 49
# [17] = tested on: Rhinovirus 53; assay: Anti-rhinovirus activity, cytopathic effect inhibition / neutral red dye uptake, type 53; assay type: cell-based; conditions: Enterovirus, WI-38; Table II; read-out: MIC 50 Rhinovirus Type 53
# [18] = tested on: Rhinovirus 56; assay: Anti-rhinovirus activity, cytopathic effect inhibition / neutral red dye uptake, type 56; assay type: cell-based; conditions: Enterovirus, WI-38; Table II; read-out: MIC 50 Rhinovirus Type 56
# [19] = tested on: Rhinovirus 63; assay: Anti-rhinovirus activity, cytopathic effect inhibition / neutral red dye uptake, type 63; assay type: cell-based; conditions: Enterovirus, WI-38; Table II; read-out: MIC 50 Rhinovirus Type 63
# [20] = tested on: Rhinovirus 86; assay: Anti-rhinovirus activity, cytopathic effect inhibition / neutral red dye uptake, type 86; assay type: cell-based; conditions: Enterovirus, WI-38; Table II; read-out: MIC 50 Rhinovirus Type 86
# [21] = tested on: Rhinovirus 88; assay: Anti-rhinovirus activity, cytopathic effect inhibition / neutral red dye uptake, type 88; assay type: cell-based; conditions: Enterovirus, WI-38; Table II; read-out: MIC 50 Rhinovirus Type 88
# [22] = tested on: Polio 1; assay: microbe, parasite or virus in culture; assay type: cell-based; conditions: Enterovirus, read-out: MIC 50 Polio 1
# [23] = tested on: Coxsacki-A9; assay: Activity against other picornaviruses, Coxsacki-A9; assay type: cell-based; conditions: Enterovirus, read-out: MIC 50 Cox. A9
# [24] = tested on: Coxsacki-A21; assay: Activity against other picornaviruses, Coxsacki-A21; assay type: cell-based; conditions: Enterovirus, read-out: MIC 50 Cox. A21
# [25] = tested on: Coxsacki-B1; assay: Activity against other picornaviruses, Coxsacki-B1; assay type: cell-based; conditions: Enterovirus, read-out: MIC 50 Cox. B1
# [26] = tested on: Coxsacki-B4; assay: Activity against other picornaviruses, Coxsacki-B4; assay type: cell-based; conditions: Enterovirus, read-out: MIC 50 Cox. B4
# [27] = tested on: Echo-7; assay: Activity against other picornaviruses, Echo-7; assay type: cell-based; conditions: Enterovirus, read-out: MIC 50 Echo 7
# [28] = tested on: Echo-11; assay: Activity against other picornaviruses, Echo-11; assay type: cell-based; conditions: Enterovirus, read-out: MIC 50 Echo 11
# [29] = tested on: Enterovirus serotypes; assay type: cell-based; conditions: for All Enterovirus Serotypes (number of serotypes active / tested): Table III, numerator, denominator 7, but 5 for compound 8
# [30] = tested on: 20 serotypes of rhinovirus; assay: Anti-rhinovirus activity against a panel of 20 serotypes; conditions: Table II; numerator; denominator 20, but 10 for compound 8 and 6 for compound 30
# [31] = tested on: HRV-1A and HRV-39; assay: Anti-rhinovirus activity against HRV-1A and HRV-39; conditions: in words
# [32] = Table I, concentration with change in morphology in 25% of WI38 cells
# [33] = Table I, WI38 cells, 33° C., 3-4 days, NA = Not active, read-out: MIC50 Rhinovirus 1A
Structure (SMILES),"Toxicity [1, 32] [µg/mL]",Toxicity ([1]; Table II) [µg/mL],Toxicity ([1]; Table III) [µg/mL],"EC50 [2, 33] [µg/mL]",IC50 [3] [µg/mL],IC50 [4] [µg/mL],IC50 [5] [µg/mL],IC50 [6] [µg/mL],IC50 [7] [µg/mL],IC50 [8] [µg/mL],IC50 [9] [µg/mL],IC50 [10] [µg/mL],EC50 [11] [µg/mL],EC50 [12] [µg/mL],EC50 [13] [µg/mL],EC50 [14] [µg/mL],EC50 [15] [µg/mL],EC50 [16] [µg/mL],EC50 [17] [µg/mL],EC50 [18] [µg/mL],further results
"Cc1cc(CCCCCCCOc2ccc(C3=NCCO3)cc2)on1 [Disoxaril, reference compound]",50,50,50,10,25,> 25,0.5,5,< 0.5,10,10,0.5,25,10,> 25,5,< 0.5,> 25,25,25,"EC50 ([2]; Table II, one of seven commonest serotypes, read-out: MIC 50 Rhinovirus Type 1A): 25 µg/mL; EC50 [19]: 25 µg/mL; EC50 [20]: 0.5 µg/mL; EC50 [21]: < 0.5 µg/mL; EC50 [22]: 5 µg/mL; EC50 [23]: 5 µg/mL; IC50 [24]: 5 µg/mL; IC50 [25]: 10 µg/mL; IC50 [26]: 10 µg/mL; IC50 [27]: 5 µg/mL; IC50 [28]: 5 µg/mL; All Enterovirus Serotypes (number of serotypes active / tested) [29]: 7; All Rhinovirus Serotypes (number of serotypes active / tested) [30]: 17"
Cc1cnsc1CCCCCCOc1ccc2oc3ccccc3c2c1 [Compound 19],50,50,50,10,5,10,> 25,10,> 25,10,10,0.5,> 25,> 25,> 25,5,< 0.5,> 25,10,10,EC50 [19]: 10 µg/mL; EC50 [20]: 10 µg/mL; EC50 [21]: 1 µg/mL; EC50 [22]: > 25 µg/mL; EC50 [23]: 10 µg/mL; IC50 [24]: 10 µg/mL; IC50 [25]: 5 µg/mL; IC50 [26]: > 25 µg/mL; IC50 [27]: 25 µg/mL; IC50 [28]: > 25 µg/mL; inhibitory activity against the members of the Entero virus family [29]: remarkable inhibitory activity; All Enterovirus Serotypes (number of serotypes active / tested) [29]: 4; inhibitory activity against HRV-1A and HRV-39 in vitro [31]: remarkably inhibitory activity; All Rhinovirus Serotypes (number of serotypes active / tested) [30]: 14
Cc1csc(CCCCCCCOc2ccc3oc4ccccc4c3c2)n1 [Compound 15],50,50,50,10,5,> 25,1,5,5,10,5,5,1,> 25,> 25,5,1,> 25,> 25,5,EC50 [19]: > 25 µg/mL; EC50 [20]: < 0.5 µg/mL; EC50 [21]: < 0.5 µg/mL; EC50 [22]: 5 µg/mL; EC50 [23]: 1 µg/mL; IC50 [24]: 5 µg/mL; IC50 [25]: 25 µg/mL; IC50 [26]: 10 µg/mL; IC50 [27]: 10 µg/mL; IC50 [28]: > 25 µg/mL; inhibitory activity against the members of the Entero virus family [29]: remarkable inhibitory activity; All Enterovirus Serotypes (number of serotypes active / tested) [29]: 6; All Rhinovirus Serotypes (number of serotypes active / tested) [30]: 14
Cc1csc(CCCCCCOc2ccc3oc4ccccc4c3c2)n1 [Compound 27],50,50,50,10,5,> 25,25,10,10,5,25,10,10,10,> 25,10,10,> 25,10,5,EC50 [19]: 25 µg/mL; EC50 [20]: 1 µg/mL; EC50 [21]: > 25 µg/mL; EC50 [22]: > 25 µg/mL; EC50 [23]: 5 µg/mL; IC50 [24]: 10 µg/mL; IC50 [25]: 10 µg/mL; IC50 [26]: > 25 µg/mL; IC50 [27]: > 25 µg/mL; IC50 [28]: > 25 µg/mL; inhibitory activity against the members of the Entero virus family [29]: remarkable inhibitory activity; All Enterovirus Serotypes (number of serotypes active / tested) [29]: 3; All Rhinovirus Serotypes (number of serotypes active / tested) [30]: 17
